From ChEMBL document CHEMBL4196127, “Discovery of AM-6226: A Potent and Orally Bioavailable GPR40 Full Agonist That Displays Efficacy in Nonhuman Primates” (ACS Med Chem Lett, 2018) come the findings set out here.

Structures are written as SMILES.

For one data set, the target named is T1, Free fatty acid receptor 1 (Homo sapiens, UniProt O14842). The experiment in a line: Agonist activity at GPR40 (unknown origin) expressed in CHO cells incubated for 2 hrs measured over 20 secs in presence of human serum albumin by aequorin based luminescence assay. The format is functional, cell-based.
T1 sequence (O14842 whole entry): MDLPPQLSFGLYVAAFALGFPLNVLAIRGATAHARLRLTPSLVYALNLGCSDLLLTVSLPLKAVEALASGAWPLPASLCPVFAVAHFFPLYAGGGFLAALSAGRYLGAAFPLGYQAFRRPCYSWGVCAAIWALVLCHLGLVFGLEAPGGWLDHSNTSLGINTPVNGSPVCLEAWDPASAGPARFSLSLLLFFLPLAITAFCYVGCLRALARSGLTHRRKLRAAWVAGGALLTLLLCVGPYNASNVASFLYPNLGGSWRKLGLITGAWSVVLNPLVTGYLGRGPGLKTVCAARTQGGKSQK
Conditions: not given
The EC50 is the midpoint of the concentration-response curve. Take `CC[C@H](CC(=O)O)c1cc(OCc2ccc(-c3cc(OC)ccc3F)c([C@@H]3CCCC3(C)C)c2)ccc1F`: the EC50 worked out at 210 nM.

Turning to `COc1ccc(F)c(-c2ccc(COc3cccc([C@H](CC(=O)O)C4CC4)c3)cc2[C@@H]2CCCC2(C)C)c1`, the EC50 was 1830 nM.

For the compound `COc1ccc(F)c(-c2ccc(COc3cccc([C@@H](CC(=O)O)C4CC4)c3)cc2[C@@H]2CCCC2(C)C)c1`, the EC50 worked out at 80 nM.

Take `COc1ccc(F)c(-c2ccc(COc3cccc(CCC(=O)O)c3)cc2[C@@H]2CCCC2(C)C)c1`: the EC50 worked out at 450 nM.

Take `COc1ccc(F)c(-c2ccc(COc3cccc([C@@H](CC(=O)O)C4CC4)c3)cc2[C@H]2CCCC2(C)C)c1`: the EC50 was determined as 310 nM.

`CC[C@H](CC(=O)O)c1cc(F)cc(OCc2ccc(-c3cc(OC)ccc3F)c([C@@H]3CCCC3(C)C)c2)c1`: the concentration giving a half-maximal response (EC50) was 90 nM.

For the compound `CCC[C@H](CC(=O)O)c1cccc(OCc2ccc(-c3cc(OC)ccc3F)c([C@@H]3CCCC3(C)C)c2)c1`, the EC50 was determined as 110 nM.

Turning to `CC[C@@H](CC(=O)O)c1cccc(OCc2ccc(-c3cc(OC)ccc3F)c([C@@H]3CCCC3(C)C)c2)c1`, the EC50 was found to be 1960 nM.

`CC[C@H](CC(=O)O)c1ccc(F)c(OCc2ccc(-c3cc(OC)ccc3F)c(C3=CCCC3(C)C)c2)c1`: the EC50 was determined as 740 nM.

The target in another data set is T1, Free fatty acid receptor 1. Description: Agonist activity at GPR40 (unknown origin) expressed in CHO cells incubated for 2 hrs measured over 20 secs in presence of human serum albumin by aequorin based luminescence assay relative to AM-1638. The format is functional, cell-based.
Conditions: not given
Consider `CC[C@H](CC(=O)O)c1cc(OCc2ccc(-c3cc(OC)ccc3F)c([C@@H]3CCCC3(C)C)c2)ccc1F`, for which the Efficacy came out at 100%.

Consider `COc1ccc(F)c(-c2ccc(COc3cccc([C@H](CC(=O)O)C4CC4)c3)cc2[C@@H]2CCCC2(C)C)c1`, for which the Efficacy was found to be 89%.

In the case of `COc1ccc(F)c(-c2ccc(COc3cccc([C@@H](CC(=O)O)C4CC4)c3)cc2[C@@H]2CCCC2(C)C)c1`, the Efficacy came out at 101%.

For `COc1ccc(F)c(-c2ccc(COc3cccc(CCC(=O)O)c3)cc2[C@@H]2CCCC2(C)C)c1`, the Efficacy came to 120%.

For the compound `COc1ccc(F)c(-c2ccc(COc3cccc([C@@H](CC(=O)O)C4CC4)c3)cc2[C@H]2CCCC2(C)C)c1`, the Efficacy is 100%.

As to `CC[C@H](CC(=O)O)c1cc(F)cc(OCc2ccc(-c3cc(OC)ccc3F)c([C@@H]3CCCC3(C)C)c2)c1`, the Efficacy amounted to 105%.

As for `CCC[C@H](CC(=O)O)c1cccc(OCc2ccc(-c3cc(OC)ccc3F)c([C@@H]3CCCC3(C)C)c2)c1`, the Efficacy worked out at 100%.

Regarding `CC[C@@H](CC(=O)O)c1cccc(OCc2ccc(-c3cc(OC)ccc3F)c([C@@H]3CCCC3(C)C)c2)c1`, the Efficacy is 76%.

On to `CC[C@H](CC(=O)O)c1ccc(F)c(OCc2ccc(-c3cc(OC)ccc3F)c(C3=CCCC3(C)C)c2)c1`, for which the Efficacy turned out to be 82%.

Tested on in the next data set: not listed separately
The experiment in a line: Fraction unbound in rat plasma at 0.5 mg/kg, iv or 2 mg/kg, po. The format is ADME, organism-based.
Conditions: not given
The term fraction unbound denotes the share of the substance not bound to proteins or other matrix. High values mean much free substance, low ones little free substance. Compound `COc1ccc(F)c(-c2ccc(COc3cccc([C@@H](CC(=O)O)C4CC4)c3)cc2[C@@H]2CCCC2(C)C)c1` had an unbound share (fraction unbound) of 0.006.

Tested on in another data set: not listed separately
Description: Cmax in rat at 2 mg/kg, po. The format is ADME, organism-based. The arrangement: dose 2 mg/kg, route oral. The following applies: in vivo.
What is called Cmax is the highest concentration seen after dosing. With `COc1ccc(F)c(-c2ccc(COc3cccc([C@@H](CC(=O)O)C4CC4)c3)cc2[C@@H]2CCCC2(C)C)c1`, the highest level (Cmax) was 250 nM.

Tested on in another data set: not listed separately
The experiment in a line: AUC in rat at 2 mg/kg, po. Type of data set: ADME, organism-based. The following applies: in vivo.
One may read the AUC as the area under the concentration-time curve, a measure of exposure. Lower therefore signals low exposure. In the case of `COc1ccc(F)c(-c2ccc(COc3cccc([C@@H](CC(=O)O)C4CC4)c3)cc2[C@@H]2CCCC2(C)C)c1`, the AUC was 1.83 µM·h.

Tested on in the next data set: not listed separately
Description: Clearance in rat at 0.5 mg/kg, iv. To be noted: in vivo.
The clearance is the volume of plasma or blood freed of the substance per unit of time. Consider `COc1ccc(F)c(-c2ccc(COc3cccc([C@@H](CC(=O)O)C4CC4)c3)cc2[C@@H]2CCCC2(C)C)c1`, for which the clearance was 12 mL/min/kg.

The next data set has as its system Rattus norvegicus. The experiment in a line: Volume of distribution at steady state in rat at 0.5 mg/kg, iv. The following applies: in vivo.
For orientation: Vdss means a proportionality between amount in the body and measured concentration, not a real space. Compound `COc1ccc(F)c(-c2ccc(COc3cccc([C@@H](CC(=O)O)C4CC4)c3)cc2[C@@H]2CCCC2(C)C)c1` came in with a distribution volume (Vdss) of 1.68 L/kg.
